The inhibition is the drop in the measured response relative to a control, in per cent. One may read the IC50 as the concentration at which inhibition is half-maximal.

Assay [1] addresses T1, Glucose-6-phosphatase catalytic subunit 1 (Rattus norvegicus) (UniProt P43428).
T1 sequence (whole entry): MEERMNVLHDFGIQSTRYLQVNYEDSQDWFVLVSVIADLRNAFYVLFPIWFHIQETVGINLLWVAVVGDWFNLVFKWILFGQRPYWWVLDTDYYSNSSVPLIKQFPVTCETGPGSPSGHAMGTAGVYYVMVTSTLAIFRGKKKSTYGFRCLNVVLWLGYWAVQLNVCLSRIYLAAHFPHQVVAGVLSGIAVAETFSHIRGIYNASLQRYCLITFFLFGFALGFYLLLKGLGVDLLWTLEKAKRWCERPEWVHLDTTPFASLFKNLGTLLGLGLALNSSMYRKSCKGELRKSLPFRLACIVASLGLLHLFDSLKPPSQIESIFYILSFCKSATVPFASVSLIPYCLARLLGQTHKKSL
Nature of the assay: Inhibition of rat liver glucose-6-phosphatase at 100 uM.

Assay [2] deals with T2, Glycogen phosphorylase, liver form (Rattus norvegicus) (UniProt P09811).
T2 sequence (whole entry): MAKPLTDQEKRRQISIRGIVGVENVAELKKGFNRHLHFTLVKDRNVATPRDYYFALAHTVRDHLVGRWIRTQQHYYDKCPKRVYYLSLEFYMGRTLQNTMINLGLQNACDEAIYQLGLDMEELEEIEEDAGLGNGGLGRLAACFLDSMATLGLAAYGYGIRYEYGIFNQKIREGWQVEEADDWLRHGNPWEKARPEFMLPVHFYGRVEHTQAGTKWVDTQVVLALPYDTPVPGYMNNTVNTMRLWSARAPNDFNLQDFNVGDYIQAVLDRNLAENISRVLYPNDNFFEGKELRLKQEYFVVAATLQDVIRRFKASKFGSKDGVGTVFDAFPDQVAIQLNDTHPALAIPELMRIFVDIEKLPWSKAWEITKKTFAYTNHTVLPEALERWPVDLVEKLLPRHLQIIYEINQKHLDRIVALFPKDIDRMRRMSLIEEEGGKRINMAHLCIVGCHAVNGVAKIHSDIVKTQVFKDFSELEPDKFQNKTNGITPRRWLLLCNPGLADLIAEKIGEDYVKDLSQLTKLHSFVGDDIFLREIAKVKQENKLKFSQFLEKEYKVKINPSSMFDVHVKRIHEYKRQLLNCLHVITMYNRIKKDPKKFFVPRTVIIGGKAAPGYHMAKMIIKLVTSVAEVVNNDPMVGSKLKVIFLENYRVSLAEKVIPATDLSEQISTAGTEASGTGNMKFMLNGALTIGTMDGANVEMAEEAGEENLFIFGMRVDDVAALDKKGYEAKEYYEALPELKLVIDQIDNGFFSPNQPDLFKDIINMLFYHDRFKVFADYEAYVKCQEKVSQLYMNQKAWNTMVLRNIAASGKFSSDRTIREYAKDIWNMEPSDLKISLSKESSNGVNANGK
Kind of assay: Inhibition of rat liver glycogen […] at 100 uM.

For assay [3], the system named is Rattus norvegicus. Nature of the assay: Antihyperglycemic activity against sucrose-challenged fasted Wistar rat assessed as reduction in blood glucose at 100 mg/kg, po administered 30 mins before sucrose challenge measured after 30 mins post sucrose dose relative to control. It is filed as functional. Set-up: scale not given: the % may be the effect or the level left.

Assay [4] has as its system Rattus norvegicus. Nature of the assay: Antihyperglycemic activity against sucrose-challenged streptozotocin-induced fasted Sprague-Dawley rat assessed as reduction in hyperglycemia at 100 mg/kg, po administered 30 mins before sucrose challenge measured after 5 hrs post sucrose dose relative to control. It is filed as functional. More on the design: scale not given: the % may be the effect or the level left.

Assay [5] has as its system Rattus norvegicus. Kind of assay: Antihyperglycemic activity against sucrose-challenged streptozotocin-induced fasted Sprague-Dawley rat assessed as reduction in hyperglycemia at 100 mg/kg, po administered 30 mins before sucrose challenge measured after 24 hrs post sucrose dose relative to control. The format is functional. Set-up: scale not given: the % may be the effect or the level left.

For assay [6], the target named is T3, Glycogen phosphorylase, liver form (Rattus norvegicus, UniProt P09811).
T3 sequence (P09811 whole entry): T2 sequence (whole entry)
Kind of assay: Inhibition of rat liver glycogen […].

In assay [7] the target is Lysosomal alpha-glucosidase (Rattus norvegicus) (UniProt Q6P7A9). Kind of assay: Inhibition of rat intestinal alpha-glucosidase at 100 uM.
Assay [8] has as its target T4, Glucose-6-phosphatase catalytic subunit 1 (Rattus norvegicus, UniProt P43428).
T4 sequence (P43428 whole entry): T1 sequence (whole entry)
Kind of assay: Inhibition of rat liver glucose-6-phosphatase.

Chain of Lysosomal alpha-glucosidase (Rattus norvegicus) (Q6P7A9 whole entry): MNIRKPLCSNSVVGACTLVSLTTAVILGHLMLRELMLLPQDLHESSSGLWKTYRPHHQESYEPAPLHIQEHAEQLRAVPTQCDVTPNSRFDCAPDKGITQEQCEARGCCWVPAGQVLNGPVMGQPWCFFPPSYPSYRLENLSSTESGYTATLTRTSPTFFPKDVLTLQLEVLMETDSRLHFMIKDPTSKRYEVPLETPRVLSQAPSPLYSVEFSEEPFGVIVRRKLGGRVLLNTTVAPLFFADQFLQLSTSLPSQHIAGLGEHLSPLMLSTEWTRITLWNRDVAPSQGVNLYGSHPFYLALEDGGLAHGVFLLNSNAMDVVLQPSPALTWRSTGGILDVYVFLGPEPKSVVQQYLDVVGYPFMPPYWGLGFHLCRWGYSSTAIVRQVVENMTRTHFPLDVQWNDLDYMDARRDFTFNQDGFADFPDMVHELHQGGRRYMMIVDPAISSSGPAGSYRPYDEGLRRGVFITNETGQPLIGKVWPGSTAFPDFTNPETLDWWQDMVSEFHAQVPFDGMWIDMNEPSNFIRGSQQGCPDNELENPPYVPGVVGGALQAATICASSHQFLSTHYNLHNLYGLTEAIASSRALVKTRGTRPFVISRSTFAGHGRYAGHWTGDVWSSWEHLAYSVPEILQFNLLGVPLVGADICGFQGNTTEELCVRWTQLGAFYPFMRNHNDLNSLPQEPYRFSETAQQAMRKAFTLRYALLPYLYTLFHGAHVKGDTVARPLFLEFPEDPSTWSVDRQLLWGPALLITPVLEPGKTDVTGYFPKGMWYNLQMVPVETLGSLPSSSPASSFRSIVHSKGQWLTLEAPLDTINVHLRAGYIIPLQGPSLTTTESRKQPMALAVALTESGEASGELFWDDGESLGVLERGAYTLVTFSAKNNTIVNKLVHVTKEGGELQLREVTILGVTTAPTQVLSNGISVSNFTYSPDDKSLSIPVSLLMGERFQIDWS

Take `CCOC(=O)C(C(=O)OCC)C(CC(=O)C[C@@H]1O[C@H](CO)[C@@H](O)[C@H](O)[C@H]1O)c1ccc2ccccc2c1` (mixture of isomers): the inhibition in assay [1] worked out at 4.6%; in assay [2] it was 14.7%.

As for `CN(C)C(=N)NC(=N)N` [METFORMIN], the Activity in assay [3] was 31.2%; in assay [4], 26.9%; in assay [5], 21.4%.

As to `O=C(/C=C/c1ccc2ccccc2c1)C[C@@H]1O[C@H](CO)[C@@H](O)[C@H](O)[C@H]1O`, the values for the Activity in assay [3], in assay [4] and in assay [5] were 25%, 14.2% and 10.3%, respectively. In assay [1], the inhibition is -7.7%. Moreover, the 50% inhibitory concentration (IC50) in assay [6] was determined as 98 µM.

For `COc1ccc(/C=C/C(=O)C[C@@H]2O[C@H](CO)[C@@H](O)[C@H](O)[C@H]2O)cc1OC`, the Activity was 26.7% in assay [3], 14.1% in assay [4] and 13.4% in assay [5]. Also, the inhibition in assay [1] was 15%; in assay [2] it was -5.9%.

As for `CCOC(=O)C(C(=O)OCC)C(CC(=O)C[C@@H]1O[C@H](CO)[C@@H](O)[C@H](O)[C@H]1O)c1ccccc1` (mixture of isomers), in assay [1], the inhibition is -3.3%.

In the case of `O=C(/C=C/c1ccc(O)cc1)C[C@@H]1O[C@H](CO)[C@@H](O)[C@H](O)[C@H]1O`, the inhibition in assay [1] is 4.2%; in assay [2], -3.4%.

Turning to `CCOC(=O)C(C(=O)OCC)C(CC(=O)C[C@@H]1O[C@H](CO)[C@@H](O)[C@H](O)[C@H]1O)c1ccc(Cl)cc1` (mixture of isomers), the inhibition in assay [7] was -10%; in assay [1], -6%; in assay [2], -5.4%.

Consider `CCOC(=O)C(C(=O)OCC)C(CC(=O)C[C@@H]1O[C@H](CO)[C@@H](O)[C@H](O)[C@H]1O)c1ccc(OC)c(OC)c1` (mixture of isomers), for which the results for the inhibition in assay [7], in assay [1] and in assay [2] were -2.3%, 36.2% and 24%, respectively.

On to `O=C(/C=C/c1ccc(Cl)cc1)C[C@@H]1OC[C@@H](O)[C@H](O)[C@H]1O`, for which the inhibition in assay [7] is -8.3%; in assay [1] it was 4.7%.

`CCOC(=O)C(C(=O)OCC)C(CC(=O)C[C@@H]1O[C@H](CO)[C@@H](O)[C@H](O)[C@H]1O)c1cccnc1` (mixture of isomers): in assay [1], the inhibition amounted to 37.6%.

As for `O=C(/C=C/c1ccc2ccccc2c1)C[C@@H]1O[C@H](CO)[C@@H](O[C@@H]2O[C@H](CO)[C@@H](O)[C@H](O)[C@H]2O)[C@H](O)[C@H]1O`, the inhibition was -3.9% in assay [1] and -8.3% in assay [2].

Consider `O=C(/C=C/c1cccc([N+](=O)[O-])c1)C[C@@H]1O[C@H](CO)[C@@H](O)[C@H](O)[C@H]1O`, for which the inhibition is -10% in assay [7], 8% in assay [1] and 15.6% in assay [2].

With `O=C(/C=C/c1ccc(Cl)cc1)C[C@@H]1O[C@H](CO)[C@@H](O)[C@H](O)[C@H]1O`, the inhibition in assay [7] was -5.97%.

In the case of `O=C(/C=C/c1cccnc1)C[C@@H]1O[C@H](CO)[C@@H](O)[C@H](O)[C@H]1O`, in assay [1], the inhibition was -8.1%.

As for `O=C(/C=C/c1ccccc1)C[C@@H]1O[C@H](CO)[C@@H](O)[C@H](O)[C@H]1O`, the Activity in assay [3] is reported as 19.5%; in assay [4], 2.91%; in assay [5], 12.1%. In addition, in assay [2], the inhibition turned out to be 7.3%. Moreover, in assay [8], the concentration for half-maximal inhibition (IC50) stood at 87 µM.

In the case of `COc1ccc(/C=C/C(=O)C[C@@H]2O[C@H](CO)[C@@H](O)[C@H](O)[C@H]2O)cc1`, the inhibition in assay [1] was -9.7%.

With `COc1cc(/C=C/C(=O)C[C@@H]2O[C@H](CO)[C@@H](O)[C@H](O)[C@H]2O)cc(OC)c1OC`, the inhibition in assay [1] was 4.7%.

Source of the values: ChEMBL document CHEMBL1151870, “Synthetic studies in butenonyl C-glycosides: Preparation of polyfunctional alkanonyl glycosides and their enzyme inhibitory activity” (Bioorg Med Chem Lett, 2009).
